Results on two substances are retold here after publication PMC8096952, “Similar pharmacokinetics and pharmacodynamics of a new biosimilar and reference insulin aspart in healthy Chinese males” (Scientific Reports, 2021).

Where two headings read alike, the source gives them in different places. Marks after values point to notes of the source that are not given here.

Series [1] deals with healthy Chinese males. Put plainly: Safety evaluation (treatment-emergent adverse events). The class given is in vivo. Particulars: all causalities, single 0.2 U/kg s.c., N = 30. The text has this:
The safety assessments included the vital signs, physical examination, laboratory tests (complete blood cell count, liver and renal function, urinalysis, etc.), 12-lead ECG, injection site reaction, hypoglycemia, and other AEs.

The conditions of series [2]: in vivo; cited from earlier work. The text has this: (§1) The maximum observed drug concentration and total drug exposure were higher than those in the previous report, which might ...
For series [3], the system named is healthy Chinese males. The note with it: previous reports; cited from earlier work.
Text: as §1

For a further series, the system named is C-peptide. The series is described as follows: Serum C-peptide during euglycemic clamp (endogenous insulin secretion). The class given is in vivo. Particulars: healthy Chinese males, single 0.2 U/kg s.c., 10-h euglycemic clamp, ELISA, mean ± SD, N = 30. The protocol: The euglycemic clamp study was performed after inserting two catheters (an antecubital venous catheter for infusing 20% dextrose and a retrograde venous catheter in the hand heated in a box at 55–65℃ for measuring blood glucose). After collecting the basal blood glucose level [defined as the mean of the glucose measurement of several times (− 60, − 30, − 20, − 10 min) before dosing], the subjects received a 0.2 U/kg dose of NovoRapid or RD10046 by s.c. injection into a lifted abdominal skin-fold. Blood samples were obtained at the bedside for immediate determination of whole blood glucose concentrations and then monitored every 5 min from 0 to 240 min and every 10 min from 240 to 600 min after dosing. […]
(§2) Whole blood glucose concentrations were tested with a glucose analyzer (Biosen C_line GP+, Neckar Healthcare. Co. Ltd., Magdeburg, Germany) using an automated glucose oxidase technique. Serum C-peptide levels were analyzed using an ELISA (Cat. No. 80‐CPTHU‐E01.1; ALPCO, Salem, NH), and plasma IAsp concentrations were assessed by means of a validated, ultra-performance liquid chromatography-tandem mass spectrometry (UPLC-MS/MS) method at Covance Laboratories in Shanghai. The ranges of quantification were 20–3000 pmol/L for C-peptide and 0.2–10 ng/mL for IAsp.
On the technique in general: An ELISA detects its analyte on a solid surface through an enzyme-linked reagent.

The nature of series [4]: Pharmacokinetics of insulin aspart (plasma IAsp) during euglycemic clamp study. The class given is in vivo, healthy Chinese males. Particulars: for t1/2: healthy Chinese males, single 0.2 U/kg s.c., fasted, plasma IAsp by UPLC-MS/MS, arithmetic mean (SD), N = 30; for Tmax: sc.
Text: (§3) There was a phase I, single-site, randomized, single-dose, two-period, crossover, euglycemic clamp study, evaluating the similarity in PK and PD of two IAsp products in healthy subjects (a new IAsp biosimilar RD10046 by HEC Pharm vs. NovoRapid by Novo Nordisk). In this study, subjects were randomly allocated to one of two treatment sequences (Fig. 1), in which they received 0.2 units/kg s.c. doses of two different IAsp products (as listed above) on two occasions.
(§4) Subjects were admitted to the phrase I unit on day-1 of each treatment period. On day 1, subjects received a single dose of the IAsp biosimilar RD10046 or NovoRapid after an overnight fast of at least 10 h, and a euglycemic clamp procedure that lasted up to 10 h postdose was performed. Subjects were discharged when they had had carbohydrates at the end of the euglycemic clamp. An interval of 7–14 days existed between the two doses.
(§5) The euglycemic clamp study was performed after inserting two catheters (an antecubital venous catheter for infusing 20% dextrose and a retrograde venous catheter in the hand heated in a box at 55–65℃ for measuring blood glucose). After collecting the basal blood glucose level [defined as the mean of the glucose measurement of several times (− 60, − 30, − 20, − 10 min) before dosing], the subjects received a 0.2 U/kg dose of NovoRapid or RD10046 by s.c. injection into a lifted abdominal skin-fold. Blood samples were obtained at the bedside for immediate determination of whole blood glucose concentrations and then monitored every 5 min from 0 to 240 min and every 10 min from 240 to 600 min after dosing. During the euglycemic clamp, the GIR was varied as necessary to maintain the blood glucose concentration within approximately ± 10% of the target level (defined as 0.28 mmol/L below the subject’s basal glucose level). The investigator made the GIR adjustment based on glucose measurements and experience. If the GIR fell to zero for at least 30 min, the clamp was discontinued. A 4-mL blood sample was collected at the following points for analysis of C-peptide and IAsp concentration: − 30, 0 (before dosing), 10, 20, 30, 40, 50, 60, 90, 120, 150, 180, 210, 240, 270, 300, 360, 420, 480 and 600 min. The baseline of C-peptide was defined as the mean value of two measurements at − 30 and 0 min.
as §2
The primary endpoint parameters of PK were shown as follows derived from time-profiles of IAsp: (1) maximal concentration of IAsp (Cmax), (2) the AUC of IAsp from 0 to 10 h (AUCIAsp, 0-10h). The time of Cmax (Tmax) and terminal half-life (t1/2) were also recorded. Those parameters mentioned above were calculated by PKsolver (version 2.0)[26]. Log-transformed AUCIAsp,0–10h and Cmax were evaluated with a linear mixed-effects model including subject as a random effect with the period, sequence, and treatment as fixed effects. For each parameter, the difference in the LS means along with the 90% CIs was back-transformed to produce the ratio of geometric means and the CI comparing treatments. The pharmacokinetic similarity was to be concluded if the 90% CIs for both AUCIAsp,0–10h and Cmax were completely contained within the interval of 0.80–1.25.
(§6) Time-related PK/PD parameters were evaluated by a nonparametric approach based on the Hodges-Lehmann method.

The subject of series [5] is healthy Chinese males. Put plainly: Euglycemic clamp pharmacodynamics (glucose infusion rate). The class given is in vivo. The note with it: for Tearly,50% (time of half-maximum GIR before GIRmax) / Tlate,50% (time of half-maximum GIR after GIRmax) / Tonset (first time of blood glucose declining to target level, 0.28 mmol/L less than baseline) / tGIRmax (time of maximum glucose infusion rate) / AUCGIR,0–10h (total glucose infusion during the clamp) / GIRmax (maximum glucose infusion rate): healthy Chinese males, single 0.2 U/kg s.c., 10-h euglycemic clamp, N = 29 RD10046, 30 NovoRapid; for AUCGIR,0–10h (total glucose infusion during the clamp) / GIRmax (maximum glucose infusion rate): fasted, LOESS-smoothed GIR.
Text: as §3, §4, §5, §2
GIR profiles were smoothed by a locally weighted regression technique (LOESS, factor 0.10) using SAS software (version 9.4). The primary glucose-lowing effectiveness endpoints were the following parameters derived from the smoothed GIR profiles during the time interval from 0 to 10 h: (1) maximal GIR (GIRmax), (2) AUC of GIR from 0 to 10 h (AUCGIR, 0–10h). The time-related parameters including the time of GIRmax (tGIRmax), the onset of time (Tonset) (defined as the first time when BG declining at least 0.28 mmol/L from baseline), the time for GIR to rise from 0 to half of GIRmax (Tearly50%), and the time for GIR to decline from GIRmax to half of GIRmax (Tlate50%) were also recorded. A similar analysis was performed for GIRmax and AUCGIR, 0–10h.
as §6

As for insulin aspart [NovoRapid], in the series with healthy Chinese males [1], the “TEAE Blood bilirubin increased: number of AEs (number of subjects with AEs)” value was 1 (1). Besides, the Tmax in series [2] was 48 to 70 min. Moreover, in the series on healthy Chinese males [3], the GIRmax is 6 to 9 mg/kg/min and the total glucose infusion is 1300 to 1500 mg/kg. In the series with C-peptide, the “C-peptide suppression after injection (reduction from baseline)” value came out at 30.7 ± 13.3%. Moreover, the t1/2 in series [4] is reported as 38.0 (9.38) min. Further, in series [4] (in vivo), the Tmax is reported as 50.2 (30.2,75.3) min. In addition, in the series on healthy Chinese males [5] (geometric mean (CV %)), the “Tearly,50% (time of half-maximum GIR before GIRmax)” value was 38 (22) min; the “Tlate,50% (time of half-maximum GIR after GIRmax)” value was 226 (17) min; the “Tonset (first time of blood glucose declining to target level, 0.28 mmol/L less than baseline)” value was 15 (23) min; the “tGIRmax (time of maximum glucose infusion rate)” value is reported as 104 (26) min. In the series with healthy Chinese males [5] (geometric mean (CV %)), the “AUCGIR,0–10h (total glucose infusion during the clamp)” value is on record as 1542 (27) mg/kg and the “GIRmax (maximum glucose infusion rate)” value is listed as 7.64 (22) mg/kg/min. In addition, in the series on healthy Chinese males [5] (arithmetic mean), the “AUCGIR,0–10h (total glucose infusion during the clamp)” value is 1594 mg/kg and the “GIRmax (maximum glucose infusion rate)” value was found to be 7.84 mg/kg/min.

For the substance insulin aspart [RD10046], in the series with healthy Chinese males [1], the “TEAE Electrocardiogram high voltage: number of AEs (number of subjects with AEs)” value is given as 1 (1), the “TEAE Hyperuricemia: number of AEs (number of subjects with AEs)” value was 1 (1), the “TEAE Induration: number of AEs (number of subjects with AEs)” value is listed as 1 (1) and the “TEAE Pain in extremity: number of AEs (number of subjects with AEs)” value was 1 (1). For the same substance, in the series on healthy Chinese males [1], the “TEAE Platelet count increased: number of AEs (number of subjects with AEs)” value is recorded as 1 (1) and the “TEAE Refraction disorder: number of AEs (number of subjects with AEs)” value is listed as 1 (1). Also, the “C-peptide suppression after injection (reduction from baseline)” value with C-peptide amounted to 30.2 ± 14.7%. Further, in series [4], the t1/2 is 39.2 (13.1) min. Besides, in series [4] (in vivo), the “AUCIAsp,0–10h, ratio of LS means (RD10046 divided by NovoRapid)” value is listed as 1.02^a; the “AUCIAsp,0–∞, ratio of LS means (RD10046 divided by NovoRapid)” value came out at 1.02; the “Cmax, ratio of LS means (RD10046 divided by NovoRapid)” value is listed as 1.01^a; the Tmax was 50.3 (20.4,60.9) min. Also, in the series on healthy Chinese males [5] (90% CI in next column), the “AUCGIR,0–10h, ratio of LS means (RD10046 divided by NovoRapid)” value is listed as 0.97^a and the “GIRmax, ratio of LS means (RD10046 divided by NovoRapid)” value is recorded as 0.98^a. In addition, in the series on healthy Chinese males [5] (Hodges-Lehmann method), the “Tearly,50%, difference between medians (RD10046 - NovoRapid)” value is reported as 0.13^b min; the “Tlate,50%, difference between medians (RD10046 - NovoRapid)” value was 0.39^b min; the “Tonset, difference between medians (RD10046 - NovoRapid)” value is given as 0^b min; the “tGIRmax, difference between medians (RD10046 - NovoRapid)” value is listed as 15^b min. In addition, in the series on healthy Chinese males [5] (geometric mean (CV %)), the “Tearly,50% (time of half-maximum GIR before GIRmax)” value is 38 (21) min; the “Tlate,50% (time of half-maximum GIR after GIRmax)” value is on record as 227 (21) min; the “Tonset (first time of blood glucose declining to target level, 0.28 mmol/L less than baseline)” value is given as 16 (28) min; the “tGIRmax (time of maximum glucose infusion rate)” value is listed as 113 (33) min. Further, in the series on healthy Chinese males [5] (geometric mean (CV %)), the “AUCGIR,0–10h (total glucose infusion during the clamp)” value is reported as 1493 (31) mg/kg and the “GIRmax (maximum glucose infusion rate)” value is 7.44 (23) mg/kg/min. Besides, in the series on healthy Chinese males [5] (arithmetic mean), the “AUCGIR,0–10h (total glucose infusion during the clamp)” value stood at 1558 mg/kg and the “GIRmax (maximum glucose infusion rate)” value was 7.65 mg/kg/min.
